Results: patent US20250270274A1, “SUPER LONG-LASTING GLP1 OR GLP1/GIP ANALOGUE DRUG FOR TYPE-2 DIABETES AND OBESITY” (Serpentide Inc., priority 2024, published 2025)
“And” between values parts separate entries of the source, which are not always exact repeats. Equal values may be shown once.

What was measured:
[1] = test system: C57BL mice; assay: Intraperitoneal glucose tolerance test (IPGTT) after single SC injection; assay type: in vivo; settings: for glucose-lowering effect (IPGTT): single SC, P19 15 nmol/kg, P28 10 or 30 nmol/kg (FIG. 5 legend); for glucose reduction (IPGTT): single SC 100 or 300 nmol/kg
Procedure: The effect of the fusion proteins on glucose tolerance was determined in C57BL mice (Beijing Vital River Laboratory Animal Technology Co., Ltd.). Each group (6 mice per group) received a single subcutaneous injection of PBS vehicle control, dulaglutide (TRULICITY® brand) (Vetter Pharma-Fertigung GmbH & Co. […] Intraperitoneal glucose tolerance tests (IPGTT) were performed on Day 1, 7, 14, 21, up to 28 after 6 hours fasting with tail vein blood glucose measurements at 0, 15, 30, 60, and 120 minutes.

[2] = cited from earlier work
[3] = test system: DIO mice; assay: 28-day study in DIO mice: body weight, blood glucose, food intake; assay type: in vivo; settings: for weight loss: after 28 days
Procedure: To further characterize and understand the efficacy of the fusion proteins, body weight and metabolic parameters were measured throughout a 28-day study in DIO mice (Beijing Vital River Laboratory Animal Technology Co., Ltd.).
The effects of all fusion proteins on blood glucose reduction and food intake were determined in the DIO mice described above (FIG. 7A and FIG. 7B). All mice are bled after fasting for 6 hours to measure blood glucose twice weekly.

| Compound | glucose-lowering effect (IPGTT) ([1]; Day 1) | glucose-lowering effect (IPGTT) ([1]; Day 7) | half-life in mice [2] | weight loss ([3]; 30 nmol/kg twice weekly) [%] | decrease in body weight compared with dulaglutide ([3]; twice weekly) | glucose reduction (IPGTT) ([1]; Day 1) | glucose reduction (IPGTT) ([1]; Day 7 and 14) | glucose reduction (IPGTT) ([1]; Day 21) | weight loss ([3]; 10 nmol/kg twice weekly) |
| --- | --- | --- | --- | --- | --- | --- | --- | --- | --- |
| CC[C@H](C)[C@H](NC(=O)[C@H](CC(C)C)NC(=O)[C@H](Cc1c[nH]c2ccccc12)NC(=O)[C@H](CCC(N)=O)NC(=O)[C@@H](NC(=O)[C@H](Cc1ccccc1)NC(=O)[C@H](C)NC(=O)[C@H](CCCCNC(=O)COCCOCCNC(=O)COCCOCCNC(=O)CC[C@H](NC(=O)CCCCCCCCCCCCCCCCCCC(=O)O)C(=O)O)NC(=O)[C@H](CCC(N)=O)NC(=O)[C@H](C)NC(=O)[C@@H](NC(=O)[C@H](CCCCN)NC(=O)[C@H](CC(=O)O)NC(=O)[C@H](CC(C)C)NC(=O)C(C)(C)NC(=O)[C@@H](NC(=O)[C@H](CO)NC(=O)[C@H](Cc1ccc(O)cc1)NC(=O)[C@H](CC(=O)O)NC(=O)[C@H](CO)NC(=O)[C@@H](NC(=O)[C@H](Cc1ccccc1)NC(=O)[C@@H](NC(=O)CNC(=O)[C@H](CCC(=O)O)NC(=O)C(C)(C)NC(=O)[C@@H](N)Cc1ccc(O)cc1)[C@@H](C)O)[C@@H](C)O)[C@@H](C)CC)[C@@H](C)CC)C(C)C)C(=O)N[C@@H](C)C(=O)NCC(=O)NCC(=O)N1CCC[C@H]1C(=O)N[C@@H](CO)C(=O)N[C@@H](CO)C(=O)NCC(=O)N[C@@H](C)C(=O)N1CCC[C@H]1C(=O)N1CCC[C@H]1C(=O)N1CCC[C@H]1C(=O)N[C@@H](CO)C(N)=O [P19, Tirzepatide, reference compound] | showed glucose-lowering effects | lost all effects | less than one day | 26 | more significant dose-dependent decrease in body weight | – | – | – | – |
| dulaglutide [reference compound] | – | – | – | 16.6 | – | very strong glucose reduction | rapidly waned | completely lost effect | 10.9% and 11% |
